Results from patent US8324014B2, “Process for depositing boron compounds by CVD or PVD” (L'Air Liquide Societe Anonyme pour l'Etude et …, priority 2007, dated 2012).
Like-named read-outs stand apart in the source and are kept apart here.

Legend:
[1] = thermogravimetric analysis; assay type: physicochemical; conditions: ramp 20 to 400° C., 10° C./min, 30 mL/min helium
Experimental: A thermogravimetric analysis of 1,3,5-trimethylborazine was carried out over a temperature ramp of 20 to 400° C., with a rise of 10° C./min under 30 mL/min of helium.
Curve 2 from FIG. 2A plotted as a lighter line represents the loss in mass of the sample as a function of the temperature. The final value of the residue level of 3.2% indicates a high purity and good thermal stability of 1,3,5-trimethylborazine. This residue level is reached at 165° C.
Thermogravimetric analysis of tri-butylborane was carried out over a temperature ramp of 20 to 400° C., with a rise of 10° C./min under 30 mL/min of helium.
Curve 2 from FIG. 4 plotted as a lighter line represents the loss in mass of the sample as a function of the temperature.

[2] = vapour pressure measurement (Clausius-Clapeyron diagram); assay type: physicochemical
Experimental: The curve plotted in FIG. 2B represents the Clausius-Clapeyron diagram of the 1,3,5-trimethylborazine molecule, namely its vapour pressure measurement. 1,3,5-trimethylborazine has a vapour pressure of 40 Torr at 50° C. and greater than 200 Torr at 100° C., indicating a good volatility.

[3] = tested on: rat; conditions: cited from earlier work

Structure (SMILES)	final value of the residue level (thermal stability) [1] [%]	vapour pressure ([2]; at 50° C.) [Torr]	vapour pressure ([2]; at 100° C.)	toxicity qualification with reference to LD50 oral, rat ([3]; in vivo, po)	toxicity qualification with reference to LD50 oral, rat ([3]; oral)
CCCCB(CCCC)CCCC [tri-n-butylborane]	0.6	–	–	–	–
CN1BN(C)BN(C)B1 [1,3,5-trimethylborazine]	3.2	40	greater than 200 Torr	slightly toxic to almost non-toxic	–
CB(C)C [trimethylborane]	–	–	–	–	very toxic
B.B [diborane]	–	–	–	–	lethal
